Source: ChEMBL document CHEMBL1201862, “PubChem BioAssay data set” (2004)
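Cells were grown in 96-well plates and exposed to each compound for 48 hours at five concentrations; endpoints were interpolated linearly between bracketing concentrations, or set to the highest concentration if not reached. At the GI50, growth is halved.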 Activity calls are given as the source filed them. Cut-off read from the data, not from the text of the source: active = GI50 up to about 1.1 µM and inactive = higher.

Tests used:
Assay in all cases: growth of human tumour cells (NCI), 48 h
786-0 = test system: 786-0
A498 = test system: A498
A549 = test system: A549
ACHN = test system: ACHN
BT-549 = test system: BT-549
CAKI-1 = test system: CAKI-1
CCRF-CEM = test system: CCRF-CEM
COLO 205 = test system: COLO 205
EKVX = test system: EKVX
HCC 2998 = test system: HCC 2998
HCT-116 = test system: HCT-116
HCT-15 = test system: HCT-15
HL-60 = test system: HL-60
HOP-62 = test system: HOP-62
HOP-92 = test system: HOP-92
HT-29 = test system: HT-29
Hs-578T = test system: Hs-578T
IGROV-1 = test system: IGROV-1
K562 = test system: K562
KM12 = test system: KM12
M14 = test system: M14
MCF7 = test system: MCF7
MDA-MB-231 = test system: MDA-MB-231
MDA-MB-435 = test system: MDA-MB-435
MDA-N = test system: MDA-N
MOLT-4 = test system: MOLT-4
Malme-3M = test system: Malme-3M
NCI-H226 = test system: NCI-H226
NCI-H23 = test system: NCI-H23
NCI-H460 = test system: NCI-H460
NCI-H522 = test system: NCI-H522
NCI/ADR-RES = test system: NCI/ADR-RES
OVCAR-3 = test system: OVCAR-3
OVCAR-4 = test system: OVCAR-4
OVCAR-5 = test system: OVCAR-5
OVCAR-8 = test system: OVCAR-8
PC-3 = test system: PC-3
RPMI-8226 = test system: RPMI-8226
RXF 393 = test system: RXF 393
SF-268 = test system: SF-268
SF-295 = test system: SF-295
SF-539 = test system: SF-539
SK-MEL-28 = test system: SK-MEL-28
SK-MEL-2 = test system: SK-MEL-2
SK-MEL-5 = test system: SK-MEL-5
SK-OV-3 = test system: SK-OV-3
SN12C = test system: SN12C
SNB-19 = test system: SNB-19
SNB-75 = test system: SNB-75
SR = test system: SR
SW-620 = test system: SW-620
T47D = test system: T47D
TK-10 = test system: TK-10
U-251 = test system: U-251
UACC-257 = test system: UACC-257
UACC-62 = test system: UACC-62
UO-31 = test system: UO-31
DU-145 = test system: DU-145
LOX IMVI = test system: LOX IMVI

CC(C)c1nc2cc(C(F)(F)F)ccc2[nH]c1=O
GI50 (786-0): 66.7 µM (inactive) | GI50 (A498): 61.9 µM (inactive) | GI50 (A549): 53.6 µM (inactive) | GI50 (ACHN): 72.1 µM (inactive) | GI50 (BT-549): > 100 µM (inactive) | GI50 (CAKI-1): 72.6 µM (inactive) | GI50 (CCRF-CEM): 0.361 µM (active) | GI50 (COLO 205): > 100 µM (inactive) | GI50 (EKVX): 7 µM (inactive) | GI50 (HCC 2998): > 100 µM (inactive) | GI50 (HCT-116): 62.2 µM (inactive) | GI50 (HCT-15): > 100 µM | GI50 (HL-60): 54 µM (inactive) | GI50 (HOP-62): 79.8 µM (inactive) | GI50 (HOP-92): 42.5 µM (inactive) | GI50 (HT-29): 72.1 µM (inactive) | GI50 (Hs-578T): 3.4 µM (inactive) | GI50 (IGROV-1): > 100 µM (inactive) | GI50 (K562): > 100 µM (inactive) | GI50 (KM12): > 100 µM (inactive) | GI50 (M14): > 100 µM (inactive) | GI50 (MCF7): 85.9 µM (inactive) | GI50 (MDA-MB-231): 69 µM (inactive) | GI50 (MDA-MB-435): > 100 µM (inactive) | GI50 (MDA-N): > 100 µM (inactive) | GI50 (MOLT-4): 75.3 µM (inactive) | GI50 (Malme-3M): > 100 µM (inactive) | GI50 (NCI-H226): 51.3 µM (inactive) | GI50 (NCI-H23): > 100 µM (inactive) | GI50 (NCI-H460): > 100 µM (inactive) | GI50 (NCI-H522): 39 µM (inactive) | GI50 (NCI/ADR-RES): 57.8 µM (inactive) | GI50 (OVCAR-3): 49.9 µM (inactive) | GI50 (OVCAR-4): 94.8 µM (inactive) | GI50 (OVCAR-5): > 100 µM (inactive) | GI50 (OVCAR-8): > 100 µM (inactive) | GI50 (PC-3): 77.8 µM (inactive) | GI50 (RPMI-8226): > 100 µM (inactive) | GI50 (RXF 393): 49.1 µM (inactive) | GI50 (SF-268): 88.5 µM (inactive) | GI50 (SF-295): > 100 µM (inactive) | GI50 (SF-539): > 100 µM (inactive) | GI50 (SK-MEL-28): > 100 µM (inactive) | GI50 (SK-MEL-2): 62.1 µM (inactive) | GI50 (SK-MEL-5): 61.7 µM (inactive) | GI50 (SK-OV-3): > 100 µM (inactive) | GI50 (SN12C): > 100 µM (inactive) | GI50 (SNB-19): > 100 µM (inactive) | GI50 (SNB-75): 34.4 µM (inactive) | GI50 (SR): 43.3 µM (inactive) | GI50 (SW-620): > 100 µM (inactive) | GI50 (T47D): > 100 µM (inactive) | GI50 (TK-10): 70.6 µM (inactive) | GI50 (U-251): > 100 µM (inactive) | GI50 (UACC-257): > 100 µM (inactive) | GI50 (UACC-62): 29.8 µM (inactive) | GI50 (UO-31): > 100 µM (inactive)

CN1N(c2ccccc2)C(=O)C2=NC=C(C(=O)c3ccccc3)C(=N)C21C (configuration not stated)
GI50 (786-0): > 100 µM (inactive) | GI50 (A498): > 100 µM (inactive) | GI50 (A549): > 100 µM (inactive) | GI50 (ACHN): > 100 µM (inactive) | GI50 (BT-549): > 100 µM (inactive) | GI50 (CAKI-1): > 100 µM (inactive) | GI50 (CCRF-CEM): > 100 µM (inactive) | GI50 (COLO 205): > 100 µM (inactive) | GI50 (DU-145): > 100 µM (inactive) | GI50 (EKVX): > 100 µM (inactive) | GI50 (HCC 2998): > 100 µM (inactive) | GI50 (HCT-116): > 100 µM (inactive) | GI50 (HCT-15): > 100 µM | GI50 (HL-60): > 100 µM (inactive) | GI50 (HOP-62): > 100 µM (inactive) | GI50 (HOP-92): > 100 µM (inactive) | GI50 (HT-29): > 100 µM (inactive) | GI50 (Hs-578T): > 100 µM (inactive) | GI50 (IGROV-1): > 100 µM (inactive) | GI50 (K562): > 100 µM (inactive) | GI50 (LOX IMVI): > 100 µM (inactive) | GI50 (M14): > 100 µM (inactive) | GI50 (MCF7): > 100 µM (inactive) | GI50 (MDA-MB-231): > 100 µM (inactive) | GI50 (MDA-MB-435): > 100 µM (inactive) | GI50 (MDA-N): > 100 µM (inactive) | GI50 (MOLT-4): > 100 µM (inactive) | GI50 (Malme-3M): > 100 µM (inactive) | GI50 (NCI-H226): > 100 µM (inactive) | GI50 (NCI-H23): > 100 µM (inactive) | GI50 (NCI-H460): > 100 µM (inactive) | GI50 (NCI-H522): > 100 µM (inactive) | GI50 (OVCAR-3): > 100 µM (inactive) | GI50 (OVCAR-4): > 100 µM (inactive) | GI50 (OVCAR-5): > 100 µM (inactive) | GI50 (PC-3): > 100 µM (inactive) | GI50 (RPMI-8226): > 100 µM (inactive) | GI50 (RXF 393): > 100 µM (inactive) | GI50 (SF-268): > 100 µM (inactive) | GI50 (SF-295): > 100 µM (inactive) | GI50 (SF-539): > 100 µM (inactive) | GI50 (SK-MEL-28): > 100 µM (inactive) | GI50 (SK-MEL-2): > 100 µM (inactive) | GI50 (SK-MEL-5): > 100 µM (inactive) | GI50 (SK-OV-3): > 100 µM (inactive) | GI50 (SN12C): > 100 µM (inactive) | GI50 (SNB-19): > 100 µM (inactive) | GI50 (SR): > 100 µM (inactive) | GI50 (SW-620): > 100 µM (inactive) | GI50 (T47D): > 100 µM (inactive) | GI50 (TK-10): > 100 µM (inactive) | GI50 (U-251): > 100 µM (inactive) | GI50 (UACC-257): > 100 µM (inactive) | GI50 (UACC-62): > 100 µM (inactive) | GI50 (UO-31): > 100 µM (inactive)
